# Laboratory results: patent US7300930B2, “Therapeutic acridone and acridine compounds” (Cancer Research Technology Limited, priority 2000, dated 2007)
# Key:
# [1] = Growth inhibition, sulforhodamine B (SRB) assay, CH1; assay type: cell-based; settings: human, CH1 ovarian carcinoma cells, CH1, 96 hr incubation, tested as salts, read-out: Cytotoxicity - IC50 CH1
# Protocol: (§1) Growth inhibition was measured in three human ovarian carcinoma cell lines (A2780, CH1, and SKOV-3) and one human cervix carcinoma cell line (A431) using the sulforhodamine B (SRB) assay. Briefly, between 3000 and 6000 cells were seeded into the wells of 96-well microtiter plates and allowed to attach overnight. Compounds (acid addition and quaternary dimethiodide salts) were dissolved at 500 μM in water and immediately added to wells in quadruplicate at final concentrations of 0.05, 0.25, 1, 5 and 25 μM. Following an incubation period of 96 hr, remaining cells were fixed with ice-cold 10% w/v trichloroacetic acid (30 min) and stained with 0.4% SRB in 1% v/v acetic acid (15 min). Mean absorbance at 540 nm for each drug concentration was expressed as a percentage of the control untreated well absorbance, and IC50 values (concentration required to inhibit cell growth by 50%) were determined for each agent.
# [2] = Growth inhibition, sulforhodamine B (SRB) assay, SKOV-3; assay type: cell-based; settings: human, SKOV-3 ovarian carcinoma cells, SKOV-3, 96 hr incubation, tested as salts, read-out: Cytotoxicity - IC50 SKOV-3
# Protocol: as §1
# telomerase = telomerase (Homo sapiens, UniProt O14746); experiment: Modified telomeric repeat amplification protocol (TRAP) assay, cell-free; assay type: biochemical; settings: extracts from A2780 cells, tested as salts, read-out: telIC50 (Telomerase Inhibitory Activity)
# telomerase, sequence (O14746 whole entry): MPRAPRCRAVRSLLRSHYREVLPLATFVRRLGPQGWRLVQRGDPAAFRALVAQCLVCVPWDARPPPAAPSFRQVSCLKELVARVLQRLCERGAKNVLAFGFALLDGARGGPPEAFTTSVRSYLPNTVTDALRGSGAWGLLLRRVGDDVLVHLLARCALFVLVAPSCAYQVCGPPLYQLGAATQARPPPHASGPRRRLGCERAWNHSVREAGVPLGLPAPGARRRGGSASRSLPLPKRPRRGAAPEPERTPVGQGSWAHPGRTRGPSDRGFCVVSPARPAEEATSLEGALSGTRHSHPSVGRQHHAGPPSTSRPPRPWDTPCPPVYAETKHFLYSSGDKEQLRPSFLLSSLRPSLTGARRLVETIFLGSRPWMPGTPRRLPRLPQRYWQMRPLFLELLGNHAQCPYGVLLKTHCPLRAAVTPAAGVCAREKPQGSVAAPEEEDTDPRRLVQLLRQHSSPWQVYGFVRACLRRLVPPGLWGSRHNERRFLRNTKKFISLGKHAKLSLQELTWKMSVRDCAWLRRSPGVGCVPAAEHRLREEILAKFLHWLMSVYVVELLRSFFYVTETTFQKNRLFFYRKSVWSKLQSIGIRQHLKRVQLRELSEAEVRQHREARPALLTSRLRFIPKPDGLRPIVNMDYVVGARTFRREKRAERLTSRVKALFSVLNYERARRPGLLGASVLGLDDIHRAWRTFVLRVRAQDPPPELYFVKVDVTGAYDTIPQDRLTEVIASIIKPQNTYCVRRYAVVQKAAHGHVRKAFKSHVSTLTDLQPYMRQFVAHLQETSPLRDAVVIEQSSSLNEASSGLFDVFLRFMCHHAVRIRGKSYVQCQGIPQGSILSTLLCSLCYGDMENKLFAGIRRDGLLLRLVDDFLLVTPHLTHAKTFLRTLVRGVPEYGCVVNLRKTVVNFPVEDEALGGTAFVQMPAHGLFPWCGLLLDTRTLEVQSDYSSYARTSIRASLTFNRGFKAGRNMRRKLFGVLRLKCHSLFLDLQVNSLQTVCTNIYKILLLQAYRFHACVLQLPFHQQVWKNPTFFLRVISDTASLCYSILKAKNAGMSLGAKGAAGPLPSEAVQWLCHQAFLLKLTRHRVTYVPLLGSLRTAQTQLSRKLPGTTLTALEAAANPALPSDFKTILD
# Protocol: The ability of compounds to inhibit telomerase in a cell-free assay was assessed with a modified TRAP assay using extracts from exponentially growing A2780 human ovarian carcinoma cells. The TRAP assay was performed in 2 steps: (a) telomerase-mediated extension of the forward primer (TS: 5′-AATCCGTCGAGCAGAGTT (SEQ ID NO:3), Oswel Ltd., Southampton, UK) contained in a 40 µL reaction mix comprising TRAP buffer (20 mM Tris-HCl (pH 8.3), 68 mM KCl, 1.5 mM MgCl2, 1 mM EGTA, 0.05% v/v Tween 20), 0.05 μg bovine serum albumin, 50 μM of each deoxynucleotide triphosphate, 0.1 μg TS primer, and 3 μCi of [α-^32P]dCTP (Amersham plc, UK). Protein (40 ng or 20 ng) was then incubated with the reaction mix+agent (acid addition and quaternary dimethiodide salts) at final concentrations of up to 50 μM for 20 min at 25° C. A lysis buffer (no protein) control, heat-inactivated protein control, and 50% protein (20 ng or 10 ng) control were included in each assay; and (b) while heating at 80° C. in a PCR block of a thermal cycler (Hybaid, UK) for 5 min to inactivate telomerase activity, 0.1 μg of reverse CX primer (3′-[…]-5′ (SEQ ID NO:4)) and 2 Units of Taq DNA polymerase (“red hot”, Advanced Biotechnologies) were added. A 3-step PCR was then performed: 94° C. for 30 s, 50° C. for 30 s, and 72° C. for 1 min for 31 cycles. Telomerase-extended PCR products in the presence or absence of compounds were then determined either by electrophoretic separation using 8% w/w acrylamide denaturing gels and analysis by phosphorimaging or autoradiography, or by harvesting on Whatman filters (25 mm glass microfibre) and analysis by liquid scintillation counting.
# [3] = Growth inhibition, sulforhodamine B (SRB) assay, A2780; assay type: cell-based; settings: human, A2780 ovarian carcinoma cells, A2780, 96 hr incubation, tested as salts, read-out: Cytotoxicity - IC50 A2780
# Protocol: as §1
# [4] = Growth inhibition, sulforhodamine B (SRB) assay, A431; assay type: cell-based; settings: human, A431 cervix carcinoma cells, A431, 96 hr incubation, tested as salts, read-out: Cytotoxicity - IC50 A431
# Protocol: as §1
SMILES,IC50 (telomerase),IC50 at 96 h [1],IC50 at 96 h [2],IC50 at 96 h [3],IC50 at 96 h [4]
"O=C(CCN1CCCC1)Nc1ccc2c(=O)c3ccc(NC(=O)CCN4CCCC4)cc3[nH]c2c1 [BR-ACO-4, 3,6-Bis[3-(pyrrolidino)propionamido]-9(10H)-acridone]",8 µM,> 25 µM,> 25 µM,> 25 µM,
"O=C(CCN1CCCCC1)Nc1ccc2c(=O)c3ccc(NC(=O)CCN4CCCCC4)cc3[nH]c2c1 [BR-ACO-5, 3,6-Bis[3-(piperidino)propionamido]-9(10H)-acridone]",5.9 µM,13 µM,21 µM,19 µM,
"CN(C)CCC(=O)Nc1ccc2c(=O)c3ccc(NC(=O)CCN(C)C)cc3[nH]c2c1 [BR-ACO-6, 3,6-Bis[3-(dimethylamino)propionamido]-9(10H)-acridone]",4.3 µM,> 25 µM,> 25 µM,> 25 µM,
"CCN(CC)CCC(=O)Nc1ccc2c(=O)c3ccc(NC(=O)CCN(CC)CC)cc3[nH]c2c1 [BR-ACO-7, 3,6-Bis[3-(diethylamino)propionamido]-9(10H)-acridone]",5.7 µM,> 25 µM,> 25 µM,> 25 µM,
"O=C(CCN1CCOCC1)Nc1ccc2c(O)c3ccc(NC(=O)CCN4CCOCC4)cc3nc2c1 [BR-ACO-8, 3,6-Bis[3-(morpholino)propionamido]-9(10H)-acridone]",49 µM,> 25 µM,> 25 µM,> 25 µM,
"O=C(CCN1CCCC1)Nc1ccc2nc3ccc(NC(=O)CCN4CCCC4)cc3c(O)c2c1 [BR-ACO-9, 2,7-Bis[3-(pyrrolidino)propionamido]-9(10H)-acridone]",2.8 µM,> 25 µM,> 25 µM,> 25 µM,
"O=C(CCN1CCCCC1)Nc1ccc2nc3ccc(NC(=O)CCN4CCCCC4)cc3c(O)c2c1 [BR-ACO-10, 2,7-Bis[3-(piperidino)propionamido]-9(10H)-acridone]",5.8 µM,> 25 µM,> 25 µM,> 25 µM,
"CC1CCN(CCC(=O)Nc2ccc3c(=O)c4ccc(NC(=O)CCN5CCC(C)CC5)cc4[nH]c3c2)CC1 [BR-ACO-33, 3,6-Bis[3-(4-methylpiperidino)propionamido]-9(10H)-acridone]",1.9 µM,3 µM,5.6 µM,3 µM,
"O=C(CCN1CCC(O)CC1)Nc1ccc2c(O)c3ccc(NC(=O)CCN4CCC(O)CC4)cc3nc2c1 [BR-ACO-34, 3,6-Bis[3-(4-hydroxypiperidino)propionamido]-9(10H)-acridone]",1.8 µM,> 25 µM,> 25 µM,> 25 µM,
"CC1CCCCN1CCC(=O)Nc1ccc2c(=O)c3ccc(NC(=O)CCN4CCCCC4C)cc3[nH]c2c1 (stereo not drawn) [BR-ACO-36, 3,6-Bis[3-(2-methylpiperidino)propionamido]-9(10H)-acridone]",3.3 µM,11.8 µM,12 µM,13 µM,
"CCC1CCCCN1CCC(=O)Nc1ccc2c(=O)c3ccc(NC(=O)CCN4CCCCC4CC)cc3[nH]c2c1 (stereo not drawn) [BR-ACO-37, 3,6-Bis[3-(2-ethylpiperidino)propionamido]-9(10H)-acridone]",1.6 µM,11 µM,10.5 µM,11.8 µM,
CCN1CCN(CCC(=O)Nc2ccc3c(=O)c4ccc(NC(=O)CCN5CCN(CC)CC5)cc4[nH]c3c2)CC1 [BR-ACO-39],0.74 µM,> 25 µM,> 25 µM,> 25 µM,
"O=C(CCN1CCCC1)Nc1ccc2c(Nc3ccc(F)cc3)c3ccc(NC(=O)CCN4CCCC4)cc3nc2c1 [JC-ACI-3, N-{9-[4′-Fluorophenylamino]}-3,6-bis(3-pyrrolidinopropionamido)acridine]",0.07 µM,,,,2.5 µM
"CSc1ccccc1Nc1c2ccc(NC(=O)CCN3CCCC3)cc2nc2cc(NC(=O)CCN3CCCC3)ccc12 [JC-ACI-4, N-{9-[2′-(Methylsulfanyl)phenylamino]}-3,6-bis(3-pyrrolidinopropionamido)acridine]",0.15 µM,,,,2.5 µM
"CSc1cccc(Nc2c3ccc(NC(=O)CCN4CCCC4)cc3nc3cc(NC(=O)CCN4CCCC4)ccc23)c1 [JC-ACI-5, N-{9-[3′-Methylsulfanyl-phenylamino]}-3,6-bis(3-Pyrrolidinopropionamido)acridine]",0.1 µM,0.6 µM,3.2 µM,2.8 µM,1.3 µM

# Further lines, with some results ahead:
IC50 (telomerase),SMILES,IC50 at 96 h [1],IC50 at 96 h [2],IC50 at 96 h [3],IC50 at 96 h [4]
0.012 µM,"O=C(CCN1CCCC1)Nc1ccc(Nc2c3ccc(NC(=O)CCN4CCCC4)cc3nc3cc(NC(=O)CCN4CCCC4)ccc23)cc1 [JC-ACI-9, N-{9-[4′-(3-Pyrrolidin-1-yl-propionylamino)-phenylamino]}-3,6-bis(3-pyrrolidinopropionamido)acridine]",20 µM,> 25 µM,> 25 µM,20 µM
0.06 µM,"CN(C)CCCNc1c2ccc(NC(=O)CCN3CCCC3)cc2nc2cc(NC(=O)CCN3CCCC3)ccc12 [JH-ACI-65, N-{9-[3-(N,N-Dimethyl)aminopropylamino]}-3,6-bis(3-pyrrolidinopropionamido)acridine]",17 µM,15.8 µM,> 25 µM,> 25 µM
0.05 µM,"O=C(CCN1CCCC1)Nc1ccc2c(NCCN3CCCCC3)c3ccc(NC(=O)CCN4CCCC4)cc3nc2c1 [JH-ACI-69, N-[9-(2-Piperidin-1-yl-ethylamino)]-3,6-bis(3-pyrrolidinopropionamido)acridine]",> 25 µM,> 25 µM,12.6 µM,11.2 µM
0.06 µM,"Nc1cccc(Nc2c3ccc(NC(=O)CCN4CCCC4)cc3nc3cc(NC(=O)CCN4CCCC4)ccc23)c1 [JH-ACI-74, N-{9-[3′-(Amino)phenylamino]}-3,6-bis(3-pyrrolidinopropionamido)acridine]",15.8 µM,> 25 µM,12.6 µM,12.6 µM
0.02 µM,"Nc1ccccc1Nc1c2ccc(NC(=O)CCN3CCCC3)cc2nc2cc(NC(=O)CCN3CCCC3)ccc12 [JH-ACI-76, N-[9-(2′-(Amino)phenylamino)]-3,6-bis(3-pyrrolidinopropionamido)acridine]",10 µM,15.8 µM,11 µM,7.1 µM
0.1 µM,"CN(C)c1cccc(Nc2c3ccc(NC(=O)CCN4CCCC4)cc3nc3cc(NC(=O)CCN4CCCC4)ccc23)c1 [JH-ACI-78, N-{9-[3′-(N,N-Dimethylamino)phenylamino]}-3,6-bis(3-pyrrolidinopropionamido)acridine]",2 µM,4 µM,7.9 µM,2 µM
0.09 µM,"O=C(CCN1CCCC1)Nc1ccc2c(NC3CCCCC3)c3ccc(NC(=O)CCN4CCCC4)cc3nc2c1 [JH-ACI-82, N-[9-(Cyclohexylamino)]-3,6-bis(3-pyrrolidinopropionamido)acridine]",2.8 µM,1.1 µM,12.5 µM,2.5 µM
0.14 µM,"COCCNc1c2ccc(NC(=O)CCN3CCCC3)cc2nc2cc(NC(=O)CCN3CCCC3)ccc12 [JH-ACI-86, N-[9-(2-Methoxy-ethylamino)]-3,6-bis(3-pyrrolidinopropionamido)acridine]",3.2 µM,17.8 µM,10 µM,10 µM
0.21 µM,"O=C(CCN1CCCC1)Nc1ccc2c(NC3CCCCCC3)c3ccc(NC(=O)CCN4CCCC4)cc3nc2c1 [JH-ACI-88, N-[9-(Cycloheptylamino)]-3,6-bis(3-pyrrolidinopropionamido)acridine]",2.8 µM,9.3 µM,3.2 µM,3.2 µM
